Calls of active or inactive are those of the source. No cut-off for these calls is given here.

The results in this text go back to ChEMBL document CHEMBL1121434, “4-[(Aminoalkyl)amino]-1,2-dimethoxynaphthalenes as antimalarial agents” (J Med Chem, 1980).

Series [1] relates to Monkey. The series can be described thus: Tested for radical curative activity in monkeys infected with Plasmodium cynomolgi at 1.0 (mg/kg)/day dose; I = inactive. The class given is functional, organism-based. Particulars: Cercopithecidae.
For series [2], the system named is Monkey. Kind of series: Tested for radical curative activity in monkeys infected with Plasmodium cynomolgi at 10.0 (mg/kg)/day dose; C = curative. The class given is functional, organism-based. Particulars: Cercopithecidae.
The subject of series [3] is Monkey. Kind of series: Tested for radical curative activity in monkeys infected with Plasmodium cynomolgi at 1 (mg/kg)/day dose; I = inactive. Particulars: Cercopithecidae. The class given is functional, organism-based.
For series [4], the system named is Monkey. Kind of series: Tested for radical curative activity in monkeys infected with Plasmodium cynomolgi at 0.316 (mg/kg)/day dose; I = inactive. Particulars: Cercopithecidae. The class given is functional, organism-based.
Series [5] has as its system Monkey. Kind of series: Tested for radical curative activity in monkeys infected with Plasmodium cynomolgi at 10 (mg/kg)/day dose; T = toxic. The class given is organism-based. Conditions: cercopithecidae, in vivo.
Series [6] deals with Monkey. The series can be described thus: Tested for radical curative activity in monkeys infected with Plasmodium cynomolgi I = inactive. The format is functional, organism-based. Conditions: Cercopithecidae.

Regarding `COc1cc(NCCCC(C)N)c2cc(Br)ccc2c1OC` (stereo not drawn), the outcome in series [1] was inactive. Also, the Activity entry in series [2] is reported as “Curative”.

`COc1cc(NCCCC(C)N)c2ccccc2c1OC` (stereo not drawn): the outcome in series [1] was inactive.

For `COc1cc(NC(C)CCCN)c2ccccc2c1OC` (stereo not drawn), in series [1], the outcome was inactive.

Consider `CCC(CCCN)Nc1cc(OC)c(OC)c2ccccc12` (stereo not drawn), for which the result in series [3] and in series [4] was inactive. Also, in series [5], the Activity entry was “Toxic”.

With `CCN(CC)CCCC(C)Nc1cc(OC)c(OC)c2ccccc12` (stereo not drawn), in series [6], the result was inactive.
